# According to US20240319156A1, “DEVICE FOR TESTING VAPORIZABLE FLUIDS IN A HUMAN AIRWAY MODEL” (Rowan University, priority 2022, published 2024):
# Tested on: human airway model tissue
# Conditions: e-cigarette vapor exposure day 20 to day 34; vs untreated 'no battery' tissue
# From the text: The investigation compared how human airway model tissue was affected by e-cigarette vapors generated from two different vape-liquids, propylene glycol/vegetable glycerin ‘PG:VG’, and vitamin E acetate ‘VEA’.
# Referring to FIGS. 30A-30B, illustration of experimental design used in research investigation, human airway model tissues were formed from day 0 to day 20, tissues were exposed to experimental vapors from day 20 to day 34.
compound,measurement,value
"CC(=O)Oc1c(C)c(C)c2c(c1C)CCC(C)(CCC[C@H](C)CCC[C@H](C)CCCC(C)C)O2 (stereo partly shown) [VEA, vitamin E acetate]",tissue morphology in stained cross-sections,present typical structure and are undamaged
